This note sets out measurements from patent publication US20250101041A1, “POSITIVE ALLOSTERIC MODULATORS OF THE MUSCARINIC ACETYLCHOLINE RECEPTOR M4” (Vanderbilt University, priority 2022, published 2025).

The target of this experiment is T1, human mAChR M4 (Homo sapiens, UniProt P08173).
T1 construct: expressed in transfected cells; host or cells: CHO-K1 (American Type Culture Collection), stably expressing hM4 and Gqi5
T1 sequence (P08173 1-479): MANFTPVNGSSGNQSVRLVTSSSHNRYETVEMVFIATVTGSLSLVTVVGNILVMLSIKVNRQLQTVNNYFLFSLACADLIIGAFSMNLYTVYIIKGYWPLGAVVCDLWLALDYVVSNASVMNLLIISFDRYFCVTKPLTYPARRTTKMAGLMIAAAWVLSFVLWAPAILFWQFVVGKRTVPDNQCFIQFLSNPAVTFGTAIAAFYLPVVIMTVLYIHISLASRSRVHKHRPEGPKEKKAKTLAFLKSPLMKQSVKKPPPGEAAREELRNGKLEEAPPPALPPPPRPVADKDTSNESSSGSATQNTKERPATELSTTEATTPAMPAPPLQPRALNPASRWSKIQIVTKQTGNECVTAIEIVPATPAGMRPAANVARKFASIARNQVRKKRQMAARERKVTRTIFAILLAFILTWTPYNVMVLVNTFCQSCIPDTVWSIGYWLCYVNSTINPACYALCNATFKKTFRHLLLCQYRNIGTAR
Briefly: mAChR M4 cell-based functional assay: calcium mobilization (Fluo-4, FDSS), potentiation of EC20 acetylcholine response in hM4-Gqi5 CHO-K1 cells. The following applies: human M4; for Emax at 30 µM: CHO-K1, % ACh maximum at 30 μM; for EC50: potentiation of EC20 acetylcholine response, calcium mobilization. The procedure, abridged: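 CHO-K1 cells stably co-expressing human M4 and chimeric Gqi5, loaded with Fluo-4 AM (50 min, 37 °C). Compounds in 11-point 1:3 series added first; EC20 acetylcholine added at 144 s and again at 230 s. Calcium read on FDSS at 1 Hz; EC50 and Emax from four-parameter logistic fit of potentiated EC20 response.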
Background: A change in cytosolic calcium serves as a functional read-out for many receptors and channels.

By Emax is commonly meant the maximal effect, on the per cent scale that the assay sets. As a reminder, the EC50 is the concentration giving half of the maximal effect.

Regarding `Cc1ccc(-c2cnc3c(c2)CN(c2nn4c(=O)cc(C(=O)NCc5cncs5)nc4cc2C)CC3)cn1` [Compound 1-77, 8-Methyl-7-(3-(6-methylpyridin-3-yl)-7,8-dihydro-1,6-naphthyridin-6(5H)-yl)-4-oxo-N-(thiazol-5-ylmethyl)-4H-pyrimido[1,2-b]pyridazine-2-carboxamide], the Emax at 30 µM worked out at 74% and the EC50 stood at 285 nM.
On to `Cc1ccc(-c2cnc3c(c2)CN(c2nn4c(=O)c(Br)cnc4cc2C)CC3)cn1` [Compound 1-78, 3-bromo-8-methyl-7-(3-(6-methylpyridin-3-yl)-7,8-dihydro-1,6-naphthyridin-6(5H)-yl)-4H-pyrimido[1,2-b]pyridazin-4-one], for which the maximal effect (Emax) at 30 µM stood at 79% and the concentration for a half-maximal effect (EC50) was found to be 152 nM.
Consider `Cc1ccc(-c2cnc3c(c2)CN(c2nn4c(=O)cc(C5CC5)nc4cc2C)CC3)cn1` [Compound 1-79, 2-cyclopropyl-8-methyl-7-(3-(6-methylpyridin-3-yl)-7,8-dihydro-1,6-naphthyridin-6(5H)-yl)-4H-pyrimido[1,2-b]pyridazin-4-one], for which the Emax at 30 µM came out at 109% and the 50% effective concentration (EC50) is 66 nM.
The matching figures for `Cc1ccc(-c2cnc3c(c2)CN(c2nn4c(=O)cc(C(F)(F)F)nc4cc2C)CC3)cn1` [Compound 1-80, 8-methyl-7-(3-(6-methylpyridin-3-yl)-7,8-dihydro-1,6-naphthyridin-6(5H)-yl)-2-(trifluoromethyl)-4H-pyrimido[1,2-b]pyridazin-4-one]: 104% and 64 nM.
The matching figures for `Cc1ccc(-c2cnc3c(c2)CN(c2nn4c(=O)cc(C(F)F)nc4cc2C)CC3)cn1` [Compound 1-81, 2-(difluoromethyl)-8-methyl-7-(3-(6-methylpyridin-3-yl)-7,8-dihydro-1,6-naphthyridin-6(5H)-yl)-4H-pyrimido[1,2-b]pyridazin-4-one]: 103% and 88 nM.
Turning to `Cc1ccc(-c2cnc3c(c2)CN(c2nn4c(=O)cc(C)nc4c(C)c2C)CC3)cn1` [Compound 1-82, 2,8,9-trimethyl-7-(3-(6-methylpyridin-3-yl)-7,8-dihydro-1,6-naphthyridin-6(5H)-yl)-4H-pyrimido[1,2-b]pyridazin-4-one], the Emax at 30 µM is 100% and the 50% effective concentration (EC50) came out at 145 nM.
In the case of `Cc1ccc(-c2cnc3c(c2)CN(c2nn4c(=O)c(C)c(C)nc4cc2C)CC3)cn1` [Compound 1-83, 2,3,8-trimethyl-7-(3-(6-methylpyridin-3-yl)-7,8-dihydro-1,6-naphthyridin-6(5H)-yl)-4H-pyrimido[1,2-b]pyridazin-4-one], the Emax at 30 µM turned out to be 87% and the concentration giving a half-maximal response (EC50) was determined as 209 nM.
The matching figures for `Cc1ccc(-c2cnc3c(c2)CN(c2nn4c(=O)cc(C(F)(F)F)nc4c(C)c2C)CC3)cn1` [Compound 1-84, 8,9-dimethyl-7-(3-(6-methylpyridin-3-yl)-7,8-dihydro-1,6-naphthyridin-6(5H)-yl)-2-(trifluoromethyl)-4H-pyrimido[1,2-b]pyridazin-4-one]: 101% and 149 nM.
On the same counts, the results for `Cc1ccc(-c2cnc3c(c2)CN(c2nn4c(=O)cc(C(F)F)nc4c(C)c2C)CC3)cn1` [Compound 1-85, 2-(difluoromethyl)-8,9-dimethyl-7-(3-(6-methylpyridin-3-yl)-7,8-dihydro-1,6-naphthyridin-6(5H)-yl)-4H-pyrimido[1,2-b]pyridazin-4-one] are 103% and 127 nM.
The matching figures for `Cc1ccc(-c2cnc3c(c2)CN(c2nn4c(=O)c(C)cnc4cc2C)CC3)cn1` [Compound 1-86, 3,8-dimethyl-7-(3-(6-methylpyridin-3-yl)-7,8-dihydro-1,6-naphthyridin-6(5H)-yl)-4H-pyrimido[1,2-b]pyridazin-4-one]: 94% and 243 nM.
Consider `Cc1c(N2CCc3ncc(-c4ccc(F)nc4)cc3C2)nn2c(=O)ccnc2c1C` [Compound 1-87, 7-(3-(6-Fluoropyridin-3-yl)-7,8-dihydro-1,6-naphthyridin-6(5H)-yl)-8,9-dimethyl-4H-pyrimido[1,2-b]pyridazin-4-one], for which the Emax at 30 µM stood at 82% and the half-maximal effective concentration (EC50) came out at 128 nM.
With `Cc1ccc(-c2cnc3c(c2)CN(c2nn4c(=O)c(Br)cnc4c(C)c2C)CC3)cn1` [Compound 1-88, 3-bromo-8,9-dimethyl-7-(3-(6-methylpyridin-3-yl)-7,8-dihydro-1,6-naphthyridin-6(5H)-yl)-4H-pyrimido[1,2-b]pyridazin-4-one], the maximal effect (Emax) at 30 µM came to 83% and the half-maximal effective concentration (EC50) turned out to be 97 nM.
As to `Cc1c(N2CCc3ncc(-c4ccc(N(C)C)nc4)cc3C2)nn2c(=O)ccnc2c1C` [Compound 1-89, 7-(3-(6-(dimethylamino)pyridin-3-yl)-7,8-dihydro-1,6-naphthyridin-6(5H)-yl)-8,9-dimethyl-4H-pyrimido[1,2-b]pyridazin-4-one], the Emax at 30 µM is 70% and the 50% effective concentration (EC50) worked out at 231 nM.
For the molecule `Cc1c(N2CCc3ncc(-c4ccc(C(F)(F)F)nc4)cc3C2)nn2c(=O)ccnc2c1C` [Compound 1-90, 8,9-dimethyl-7-(3-(6-(trifluoromethyl)pyridin-3-yl)-7,8-dihydro-1,6-naphthyridin-6(5H)-yl)-4H-pyrimido[1,2-b]pyridazin-4-one], the Emax at 30 µM was 87% and the EC50 was 669 nM.
As to `Cc1c(N2CCc3ncc(-c4ccc(C5CC5)nc4)cc3C2)nn2c(=O)ccnc2c1C` [Compound 1-91, 7-(3-(6-Cyclopropylpyridin-3-yl)-7,8-dihydro-1,6-naphthyridin-6(5H)-yl)-8,9-dimethyl-4H-pyrimido[1,2-b]pyridazin-4-one], the maximum response (Emax) at 30 µM amounted to 83% and the EC50 is 127 nM.
`Cc1c(N2CCc3ncc(-c4ccc(N(C)C)nc4)cc3C2)nn2c(=O)cc(C(F)F)nc2c1C` [Compound 1-92, 2-(difluoromethyl)-7-(3-(6-(dimethylamino)pyridin-3-yl)-7,8-dihydro-1,6-naphthyridin-6(5H)-yl)-8,9-dimethyl-4H-pyrimido[1,2-b]pyridazin-4-one]: the Emax at 30 µM was 76% and the EC50 stood at 339 nM.
Take `Cc1c(N2CCc3ncc(-c4ccc(C(F)(F)F)nc4)cc3C2)nn2c(=O)cc(C(F)F)nc2c1C` [Compound 1-93, 2-(difluoromethyl)-8,9-dimethyl-7-(3-(6-(trifluoromethyl)pyridin-3-yl)-7,8-dihydro-1,6-naphthyridin-6(5H)-yl)-4H-pyrimido[1,2-b]pyridazin-4-one]: the maximum response (Emax) at 30 µM worked out at 90% and the EC50 amounted to 333 nM.
As for `Cc1c(N2CCc3ncc(-c4ccc(C5CC5)nc4)cc3C2)nn2c(=O)cc(C(F)F)nc2c1C` [Compound 1-94, 7-(3-(6-cyclopropylpyridin-3-yl)-7,8-dihydro-1,6-naphthyridin-6(5H)-yl)-2-(difluoromethyl)-8,9-dimethyl-4H-pyrimido[1,2-b]pyridazin-4-one], the Emax at 30 µM is 79% and the EC50 amounted to 122 nM.
As to `Cc1ccncc1-c1cnc2c(c1)CN(c1nn3c(=O)ccnc3c(C)c1C)CC2` [Compound 1-95, 8,9-dimethyl-7-(3-(4-methylpyridin-3-yl)-7,8-dihydro-1,6-naphthyridin-6(5H)-yl)-4H-pyrimido[1,2-b]pyridazin-4-one], the maximum response (Emax) at 30 µM was 99% and the EC50 is 68 nM.
